We go through three compounds from patent US5457124A, “Carboxylic acid Leukotriene B4 antagonists” (Hoffmann-La Roche Inc., priority 1993, dated 1995).

The target in one assay is T1, LTB4 Receptor (Homo sapiens, UniProt Q15722).
T1 construct: Isolated human neutrophils in Gey's salt solution; endogenous in cells; host or cells: isolated human neutrophils
The assay is described as follows: LTB4 Receptor Binding Assay (inhibition of 3H-LTB4 binding, isolated human neutrophils). The settings on record: 0.5 nM 3H-LTB4, 45 minutes on ice, Cheng-Prusoff, read-out: Ki, human neutrophil cells (inhibition of 3H-LTB4 binding). As to the method:
LTB4 Receptor Binding Assay
Binding assays can be performed in microliter wells. Isolated human neutrophils in Gey's salt solution are incubated on ice for 45 minutes with 0.5 nM ^3 H-LTB4 in the presence or absence of test compounds. Assays are terminated by adding 12 ml of ice cold 50 mM Tris buffer (pH 7.4) followed by rapid filtration under vacuum through GF/C filters. Radioactivity is determined by scintillation counting. Non specific binding is defined as the binding not displaced by 100 fold excess of unlabelled LTB4. Specific binding is defined as the difference between total binding and non-specific binding. Non linear analysis of the binding data is performed using LIGAND (Munson and Rodbard, 1980). Ki (Inhibition Constant) values were determined using the Cheng-Prusoff relationship (Cheng and Prusoff, 1973).
When representative compounds of formulas A, B or C of the invention were tested, the results as set forth in Table I and expressed as inhibition of ^3 H-LTB4 binding were obtained.

The next assay relates to leukotriene B4. The assay is described as follows: Guinea Pig Bronchoconstriction, In Vivo (leukotriene B4 challenge). More on the design: species or system guinea pig (Hartley strain). As to conditions: 0.1 mg/kg test compound dose p.o., 2 hr prior to leukotriene B4 (200 μg/kg i.v.); propranolol 0.1 mg/kg i.v.; male guinea pigs. As to the method:
Guinea Pig Bronchoconstriction, In Vivo
Male guinea pigs (Hartley strain), weighing 300 to 500 g are anesthetized with urethane (2 g/kg) intraperitoneally and a polyethylene cannula is inserted into the jugular vein for drug administration. Tracheal pressure is recorded from a cannula inserted into the trachea and connected to a Gould P231D pressure transducer. After surgical preparation of the animals, a period of time is allowed for pulmonary functions to stabilize. Animals are then paralyzed with succinylcholine (1.2 mg/kg, i.v.) and mechanically respirated (Harvard rodent respirator) at 40 breaths/minute and 2.5 cc tidal volume. The test compound is administered p.o., 2 hr prior to leukotriene B4 administration. Propranolol (0.1 mg/kg) is administered intravenously 5 min prior to leukotriene B4 administration. Animals are then challenged with an intermediate constrictory dose of leukotriene B4 (200 μg/kg), delivered intravenously.
The change (cm H2 O) between pre and peak ventilatory pressure readings is averaged for 6 control and 6 drug treated animals. The percent inhibition is calculated from the formula:
((Control-Drug Treated)/Control)×100
When representative compounds of formulas A, B and C of the invention were utilized as the test compounds, the following results were obtained: […]

The structures appear in SMILES notation.

T1 sequence (Q15722 whole entry): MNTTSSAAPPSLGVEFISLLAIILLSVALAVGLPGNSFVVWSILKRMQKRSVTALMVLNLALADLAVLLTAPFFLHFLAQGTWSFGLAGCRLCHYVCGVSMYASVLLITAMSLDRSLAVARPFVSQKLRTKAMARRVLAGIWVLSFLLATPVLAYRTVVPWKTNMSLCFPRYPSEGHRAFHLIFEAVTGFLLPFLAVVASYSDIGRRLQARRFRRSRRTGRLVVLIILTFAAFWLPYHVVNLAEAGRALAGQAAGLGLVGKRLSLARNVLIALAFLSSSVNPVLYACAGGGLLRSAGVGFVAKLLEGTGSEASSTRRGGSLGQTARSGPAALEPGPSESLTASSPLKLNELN

With `O=C(O)CCCOc1cccc(CCCCCCOc2ccc3c(c2C/C=C/c2ccccc2)CCCC3=O)c1CCC(=O)O` [(E)-2-(3-Carboxypropoxy)-6-[6-[[5,6,7,8-tetrahydro-5-oxo-1-(3-phenyl-2-propenyl)-2-naphthalenyl]oxy]hexyl]benzenepropanoic Acid], at LTB4 Receptor, the Ki is 1 nM. The “% inhibition (of leukotriene B4-induced bronchoconstriction)” value (shortened to “% inhibition”) in the assay with leukotriene B4 was 64%.

Regarding `O=C(O)CCCOc1cccc(CCCCCCOc2ccc3c(c2CCCc2ccccc2)OCCC3=O)c1CCC(=O)O` [2-(3-Carboxypropoxy)-6-[6-[[3,4-dihydro-4-oxo-8-(3-phenylpropyl)-2H-1-benzopyran-7-yl]oxy]hexyl]benzenepropanoic Acid], the Ki on LTB4 Receptor was determined as 1 nM. In the assay with leukotriene B4, the “% inhibition” value amounted to 67%.

Take `O=C(O)CCCOc1cccc(CCCCCCOc2ccc3c(c2CCCc2ccccc2)CCCC3=O)c1CCC(=O)O` [2-(3-Carboxypropoxy)-6-[6-[[5,6,7,8-tetrahydro-5-oxo-1-(3-phenylpropyl)-2-naphthalenyl]oxy]hexyl]benzenepropanoic Acid]: the Ki at LTB4 Receptor is 2 nM. Besides, the “% inhibition” value in the assay on leukotriene B4 is reported as 78%.
